The results in this text go back to ChEMBL document CHEMBL1127107, “The affinity of the excised binding domain of FK-506 for the immunophilin FKBP12” (Bioorg Med Chem Lett, 1993).

In the assay the target is Peptidyl-prolyl cis-trans isomerase FKBP1A (Homo sapiens, UniProt P62942). The assay is described as follows: The compound was evaluated for its affinity to the binding domain of immunophilin FK506 binding protein 12.
Sequence of Peptidyl-prolyl cis-trans isomerase FKBP1A (P62942 whole entry, the tested form may be a part): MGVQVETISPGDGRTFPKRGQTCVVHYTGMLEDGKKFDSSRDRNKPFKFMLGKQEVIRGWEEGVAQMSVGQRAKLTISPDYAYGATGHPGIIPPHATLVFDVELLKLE

One may read the Kd as a measure of binding affinity in units of concentration. A higher Kd goes with lower affinity. In the case of `COC[C@H]1O[C@@](O)(C(=O)C(=O)N2CCCC[C@H]2C(=O)OC/C(C)=C/[C@@H]2CC[C@@H](O)[C@H](OC)C2)[C@H](C)C[C@@H]1OC`, the Kd is 10 nM.
